The source of these data is patent US5734077A, “Substituted 2,2-dimethyl-omega-phenoxyalkanoic acids and esters” (Adir ET Compagnie, priority 1995, dated 1998).

In assay [1] the test system is plasma lipids (triglycerides, total cholesterol). Put plainly: hypolipaemic activity in vivo in a diet-induced model of combined hyperlipaemia in the hamster. More on the design: species or system Golden Syrian hamster. The settings on record: 200 mg/kg/day per os, 1 week; for change in vivo at 200 mg/kg: Mesocricetus auratus, po, 168 h, hamsters on lipid-rich diet, versus control group, bezafibrate: mean ± sem of five experiments. Here is the method:
The hypolipaemic activity of certain representative compounds of the invention was evaluated in vivo in a diet-induced model of combined hyperlipaemia in the hamster.
Golden Syrian hamsters are given a diet rich in lipids (standard diet+0.5% cholesterol+10% cocoa oil) for 3 weeks before the beginning of treatment. That diet induces hypercholesterolaemia and hypertriglyceridaemia.
The products are prepared in tragacanth gum and are administered per os by forced gastric feeding for 1 week at a dose of 200 mg/kg/day. Each product is tested on a group of 6 animals. A placebo group (control) and a group of animals treated with a reference product (bezafibrate at a dose of 200 mg/kg/day) are included in each experiment.
At the end of the treatment, the animals are anaesthetised with ether. Blood is removed by abdominal puncture and the triglycerides and total cholesterol in the serums are determined. Five independent experiments were carried out in accordance with that protocol in order to evaluate the hypolipaemic effect of thirteen compounds of this invention.
The results are shown in Table B. The effect of the treatment is expressed as a percentage variation by comparison with the control group, calculated from the means of the absolute values of triglycerides and of total cholesterol. A negative value thus reflects a hypolipaemic effect of the treatment indicated. The values shown for bezafibrate represent the mean values (±sem) of five experiments.

Assay [2] relates to human low density lipoproteins (LDLs). The assay is described as follows: protective activity against oxidation of human LDLs induced by copper sulphate (TBARS determination). Conditions: copper sulphate 5 μM, 3 hours at 37° C., read-out: IC50, protection against the oxidation of LDLs. The format is biochemical. Here is the method: The dose-effect relationship of those compounds was compared with that of probucol and a soluble analogue of vitamin E, trolox.
The anti-oxidant activity of the compounds was measured according to the method of Wallin et al. (Analytical Biochemistry, 1993, 208, 10-15).
Human LDLs are incubated for 3 hours at 37° C. in the presence of an oxidising agent, copper sulphate at a concentration of 5 μM, and of the compound to be tested at concentrations ranging from 10^-8 M to 2.5×10^-6 M. A non-oxidised control (LDLs only) and an oxidised control (LDLs plus copper sulphate) are also included in each of the series of tests.
The products of the LDL oxidation reaction are quantified by the colorimetric determination of "thiobarbituric acid reactive substances" (TBARS).
The protective activity of the tested compounds is expressed by the IC50 value, which corresponds to the concentration of product required to inhibit by 50% the oxidation of LDLs observed in the absence of product. The IC50 value was calculated from the dose-response curve.

Setting [3] is: hamster, bezafibrate 200 mg/kg/day.

Each structure is given as a SMILES string. Where two headings read alike, the source gives them in different places.

In general, IC50 refers to the concentration at which inhibition is half-maximal. Take `CC(C)(CCCOc1ccc(CCSc2cc(C(C)(C)C)c(O)c(C(C)(C)C)c2)cc1)C(=O)O` [Example 2, 2,2-dimethyl-5-{4-[2-(3,5-di-tert-butyl-4-hydroxyphenylthio)ethyl]phenoxy}pentanoic acid]: the “hypocholesterolaemic effect compared with bezafibrate (in words)” value in assay [1] (setting [3]) is on record as “hypocholesterolaemic effect at least as great as bezafibrate”. Also, the “triglyceride-lowering effectiveness compared with bezafibrate (in words)” value in assay [1] (setting [3]) was “statistically at least as effective as bezafibrate”. Besides, the change in vivo at 200 mg/kg was -52% in assay [1] (read-out: Total cholesterol (% variation/control)) and -82% in assay [1] (read-out: Triglycerides (% variation/control)). Besides, the IC50 in assay [2] was determined as 210 nM.
